Laboratory results from the NIST ThermoML archive (doi:10.1016/j.jct.2009.03.007).
Numbers after ± are expanded uncertainties.

Columns and labels:
[1] = molar enthalpy of vaporization or sublimation; conditions: 298.15 K; Liquid; Calvet microcalorimetry
[2] = 298.15 K; Liquid; Calvet microcalorimetry

molar enthalpy [1] [kcal/mol] | molar enthalpy of vaporization [2] [kcal/mol] | SMILES
14.8 ± 0.621 | – | CCOC(=O)Cc1cccs1 [ethyl 2-thiopheneacetate]
– | 13.5 ± 0.621 | CCOC(=O)c1cccs1 [ethyl 2-thiophenecarboxylate]
15.1 ± 0.621 | – | CCOC(=O)Cc1ccsc1 [ethyl 3-thiopheneacetate]
– | 13.8 ± 0.574 | COC(=O)c1cccs1 [methyl 2-thiophenecarboxylate]
